Test systems include SR leukemia; OVCAR-4 ovarian; MCF7 breast; SF-295 CNS; M14 melanoma; A549 NSCLC; HT29 colon; HL-60(TB) leukemia.
Assay in all cases: inhibition of tumour cell growth, NCI panel, 48 h

“And” between values parts separate entries of the source, which are not always exact repeats. Equal values may be shown once.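 Step 1: Grow cells in 96-well plates. Step 2: Expose to compound for 48 hours at 5 concentrations. Step 3: Interpolate endpoints linearly; if unreached, use highest concentration. Abbreviation: GI50, concentration required for 50% inhibition of growth. At the TGI there is no net growth.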

For `N#Cc1c2ccccc2c2nnc3cc(C(F)(F)F)ccc3n12`, the GI50 in the test with SR leukemia is 31.3 µM; in the test on OVCAR-4 ovarian it was 55.5 µM; in the test on MCF7 breast, 10.7 µM; in the test on SF-295 CNS, 96.3 µM; with M14 melanoma, 29.7 µM; with A549 NSCLC, 36.3 µM. The GI50 in the test with HT29 colon was 58 µM; in the test on HL-60(TB) leukemia it was 58.6 µM. In addition, the TGI with SR leukemia was more than 100 µM; in the test on OVCAR-4 ovarian it was more than 100 µM; with MCF7 breast, 80.9 µM; in the test with SF-295 CNS, more than 100 µM; with M14 melanoma, more than 100 µM; in the test on A549 NSCLC, more than 100 µM. Also, the TGI with HT29 colon and in the test with HL-60(TB) leukemia was more than 100 µM throughout.
Consider `COc1ccc(/C=C(\C#N)n2nnc3cc(Cl)ccc32)cc1`, for which the GI50 in the test with SR leukemia was 0.336 µM; with OVCAR-4 ovarian, 2.51 µM; with MCF7 breast it was 0.375 µM; in the test with SF-295 CNS it was 1.18 µM; in the test on M14 melanoma, 0.373 µM; with A549 NSCLC, 0.714 µM. The results for the GI50 with HT29 colon and with HL-60(TB) leukemia were 0.334 µM and 0.327 µM, respectively. The TGI in the test with SR leukemia is more than 100 µM; in the test with OVCAR-4 ovarian, more than 100 µM; with MCF7 breast, more than 33.3 µM; in the test on SF-295 CNS, 6.43 µM; with M14 melanoma, 6.63 µM; in the test with A549 NSCLC it was more than 100 µM. Moreover, the TGI with HT29 colon and with HL-60(TB) leukemia was more than 100 µM each time.
As to `C=C1C(=O)OC2C1C(OC(=O)/C(C)=C/C)CC(O)(CCl)C1C(OC(C)=O)C=C(C)C21O` (stereo not drawn), the TGI in the test with SR leukemia was 26.1 µM; in the test on OVCAR-4 ovarian, 33.5 µM; with MCF7 breast, 19.8 µM; in the test with SF-295 CNS, more than 100 µM; in the test with M14 melanoma it was 25.7 µM; in the test on A549 NSCLC, more than 67.3 µM. Moreover, the TGI in the test with HT29 colon worked out at 31.9 µM; with HL-60(TB) leukemia, 9.39 µM.
Regarding `CCN(Cc1ccc(F)cc1F)c1ccc(CO)c(Cl)c1`, the GI50 in the test on SR leukemia was 23.2 µM; in the test on OVCAR-4 ovarian it was 0.218 µM; with MCF7 breast, 0.238 µM; in the test on SF-295 CNS, 0.513 µM; in the test on M14 melanoma, 20.3 µM; in the test on A549 NSCLC, 1.85 µM. For the same compound, the GI50 in the test on HT29 colon was 5.65 µM; in the test on HL-60(TB) leukemia it was 8.47 µM. Moreover, the TGI is 82.1 µM with SR leukemia; 1.65 µM in the test with OVCAR-4 ovarian; 12.6 µM in the test with MCF7 breast; 14.7 µM in the test on SF-295 CNS; more than 55.6 µM in the test on M14 melanoma; 21.2 µM in the test with A549 NSCLC. For the same compound, the TGI worked out at 30.4 µM in the test with HT29 colon and 38.1 µM with HL-60(TB) leukemia.
With `COc1cccc(-c2nc(-c3ccc(NS(=O)(=O)c4ccccc4)cc3)[nH]c2-c2ccnc(Br)c2)c1`, the GI50 with SR leukemia is 2.85 µM; in the test on OVCAR-4 ovarian it was 3.84 µM; in the test with MCF7 breast it was 2.64 µM; in the test on SF-295 CNS, 1.85 µM; in the test on M14 melanoma it was 2.03 µM; in the test on A549 NSCLC it was 3.11 µM. Further, the GI50 with HT29 colon is 3.02 µM; in the test with HL-60(TB) leukemia it was 2.86 µM. Moreover, the TGI was more than 100 µM with SR leukemia; more than 100 µM in the test on OVCAR-4 ovarian; more than 100 µM with MCF7 breast; 4.35 µM with SF-295 CNS; 6.09 µM in the test on M14 melanoma; more than 100 µM in the test with A549 NSCLC. Besides, the TGI with HT29 colon and with HL-60(TB) leukemia was more than 100 µM throughout.
`COc1ccc(C(=O)c2cc(OC)c(OC)c(OC)c2)cc1/C=C/C(=O)c1ccc(O)cc1`: the GI50 is 0.433 µM in the test on SR leukemia; 2.73 µM in the test on OVCAR-4 ovarian; 3.16 µM in the test with MCF7 breast; 6.5 µM in the test with SF-295 CNS; 1.98 µM in the test on M14 melanoma; 18.7 µM with A549 NSCLC. The GI50 in the test on HT29 colon was 5.35 µM; with HL-60(TB) leukemia, 0.693 µM. The TGI in the test with SR leukemia was more than 100 µM; in the test on OVCAR-4 ovarian, 58.4 µM; in the test with MCF7 breast, 15.9 µM; in the test with SF-295 CNS, 20.1 µM; with M14 melanoma, 5.86 µM; with A549 NSCLC it was more than 100 µM. The TGI with HT29 colon and with HL-60(TB) leukemia was more than 100 µM each time.
As to `CC1/C=C/C=C/CC/C=C/C=C/C=C/C=C/C(OC2OC(C)C(O)C(N)C2O)CC2OC(CC(O)C(O)CCC(O)CC(O)CC(O)CC(=O)OC(C)C(C)C1O)CC(O)C2C(=O)O` (stereo not drawn), the TGI with SR leukemia was 35.5 µM; in the test on OVCAR-4 ovarian, 29.4 µM and 52.5 µg/mL; with MCF7 breast, 36.4 µM and 150 µg/mL; in the test on SF-295 CNS it was 45.7 µM and 108 µg/mL; in the test on M14 melanoma, 34.9 µM and 48.8 µg/mL; in the test with A549 NSCLC it was 33 µM and 46.3 µg/mL. The TGI in the test on HT29 colon is 32.8 µM and 84.8 µg/mL; in the test on HL-60(TB) leukemia it was 45.1 µM. Besides, the GI50 with OVCAR-4 ovarian was 23.9 µg/mL; in the test with MCF7 breast it was 128 µg/mL; in the test on SF-295 CNS it was 46.2 µg/mL; with M14 melanoma, 27.8 µg/mL; with A549 NSCLC it was 24.5 µg/mL; in the test on HT29 colon, 37.2 µg/mL.
In the case of `C=C1C(=O)O[C@H]2[C@H]1CC/C(COC(=O)/C=C/c1cccnc1)=C\CC[C@@]1(C)O[C@@H]21`, the GI50 in the test with SR leukemia is 1.57 µM; in the test on OVCAR-4 ovarian, 3.96 µM; with MCF7 breast, 0.748 µM; with SF-295 CNS it was 10.6 µM; in the test with M14 melanoma, 1.38 µM; in the test on A549 NSCLC, 9.86 µM. For the same compound, the GI50 with HT29 colon was 2.23 µM; in the test with HL-60(TB) leukemia it was 0.741 µM. The TGI was 7.01 µM in the test on SR leukemia; 16.9 µM in the test with OVCAR-4 ovarian; 2.72 µM in the test on MCF7 breast; 23.1 µM in the test on SF-295 CNS; 3.23 µM with M14 melanoma; 23.6 µM in the test on A549 NSCLC. In addition, the TGI with HT29 colon amounted to 6.03 µM; in the test on HL-60(TB) leukemia it was 3.7 µM.
For the compound `Cc1c2ncccc2c(C)c2c1[nH]c1ccc(O)cc12`, the GI50 was 2.91 µM and 2.48 µM in the test with SR leukemia; 5.95 µM and 8.58 µM in the test on MCF7 breast; 4.53 µM in the test with SF-295 CNS; 8.67 µM in the test on M14 melanoma; 4.89 µM and 1.93 µM in the test on A549 NSCLC; 3.84 µM and 4.76 µM in the test on HL-60(TB) leukemia. In addition, the TGI is 7.31 µM and 18.9 µM with SR leukemia; 16 µM in the test with OVCAR-4 ovarian; 15.2 µM and 50 µM in the test with MCF7 breast; 10.3 µM with SF-295 CNS; 17.2 µM in the test with M14 melanoma; 15.4 µM and 13 µM with A549 NSCLC. Further, the TGI in the test with HT29 colon is 32.3 µM; in the test with HL-60(TB) leukemia it was 10.5 µM and 15 µM.
In the case of `O=P(Oc1ccccc1)(Oc1ccccc1)C(O)c1ccccc1` (stereo not drawn), the GI50 is 62.3 µM with SR leukemia; 58.2 µM in the test with OVCAR-4 ovarian; more than 100 µM with MCF7 breast; 29.3 µM with SF-295 CNS; more than 100 µM in the test with M14 melanoma; more than 100 µM in the test with A549 NSCLC. Besides, the GI50 with HT29 colon is 78.1 µM; in the test with HL-60(TB) leukemia, 60.7 µM. Moreover, the TGI with SR leukemia, in the test on OVCAR-4 ovarian, in the test on MCF7 breast, with SF-295 CNS, in the test with M14 melanoma and with A549 NSCLC was more than 100 µM in each case. Also, the TGI in the test with HT29 colon and with HL-60(TB) leukemia was more than 100 µM throughout.

(Values after PubChem BioAssay (NCI).)
